Assay results from PMC11591946, “Exploring the Potential of Biomimetic Peptides in Targeting Fibrillar and Filamentous Alpha-Synuclein—An In Silico and Experimental Approach to Parkinson’s Disease” (Biomimetics, 2024).
Where no end group is shown, it is not given here.

How the values were obtained:
ASyn preformed fibrils = target: T1, ASyn preformed fibrils (Homo sapiens, UniProt P37840); assay: Thioflavin-T (ThT) assay; format: biochemical; conditions: 20 μM ASyn preformed fibrils + 20 μM peptide in PBS, 70 μM ThT; for reduction in ThT fluorescence intensity: excitation 440 nm, over the course of 46 h
T1 construct: purchased StressMarq
Procedure: Thioflavin T assay was conducted to assess the effect of five peptides (PYYYWKELAQM; PYYYWKDPNGS; EQALMPEGMGLEDPNGS; ELAQMPYYYWKDPNGS; ELAQMPWIWYWKDPNGS) on ASyn preformed fibrils (StressMarq). […] [75]. The samples were prepared by incubating 20 μM of ASyn diluted in PBS buffer with 20 μM of each peptide. To each sample, 70 μM ThT dye diluted in deionized water was added. The prepared solutions were then transferred into quartz cuvettes, and the emission spectra at different time intervals were recorded. Samples were excited at 440 nm, and emission spectra were recorded between 460 nm to 550 nm at a slit of 3 nm.

[1] = DPPH radical scavenging antioxidant assay; format: biochemical; conditions: colorimetric DPPH kit; at the highest concentrations (2, 10, 20, 40 µM tested)
Procedure: To investigate the antioxidant activity of the five peptides (PYYYWKELAQM; PYYYWKDPNGS; EQALMPEGMGLEDPNGS; ELAQMPYYYWKDPNGS; ELAQMPWIWYWKDPNGS), we conducted a colorimetric DPPH (2,2-diphenyl-1-picrylhydrazyl) radical scavenging assay using an antioxidant assay kit (AbCam, USA). In general, the protocol from the assay kit was followed to determine the antioxidant activity. Four different concentrations of each of the peptides were utilized (2 µM, 10 µM, 20 µM, and 40 µM). A standard curve was generated using Trolox, and then the activities of each of the peptides were compared by calculating the inhibition ratio.

Sequence	reduction in ThT fluorescence intensity (ASyn preformed fibrils)	DPPH radical scavenging activity in comparison to Trolox (standard) [1]	reduction in ThT fluorescence intensity at 48 h (ASyn preformed fibrils; at 48 h)
ELAQMGPEGPMGLEDPNGS [ELAQMGPEGPMGLEDPNGS]	32%		
ELAQMPYYYWKDPNGS [ELAQMPYYYWKDPNGS]	27%		
EQALMPWIWYWKDPNGS [EQALMPWIWYWKDPNGS]		19%	42%
PYYYWKDPNGS [PYYYWKDPNGS]	46.2%		
